Results as given in patent publication US20140350273A1, “PEDIATRIC USES OF CABAZITAXEL” (AVENTIS PHARMA S.A., priority 2012, published 2014).
Read-outs that look alike come from different tables or passages of the source.

Tested on: human osteosarcoma DM77
Type: in vivo
Conditions: for Tumor Volume Data (Day 21) Median / ΔT/ΔC % / ΔT/ΔC: day 21; for MTTE / T-C: volume endpoint 1400 mm^3
Method: In the reported examples supporting this invention, vials of the clinical formulation of cabazitaxel and docetaxel were used. […] The resultant solution contains 10 mg/mL of cabazitaxel. Stock solution of cabazitaxel was then diluted in 0.9% sodium chloride.
This efficacy may be quantified, for example, as changes in tumor volume for each treated (T) and control (C) group, which are calculated for each animal and each day by subtracting the tumor volume on the day of first treatment (staging day) from the tumor volume on the specified observation day. This allows calculating the tumor growth inhibition: ΔT/ΔC=(median delta T/median delta C)×100. Individual tumor volume changes from baseline are thereafter analyzed by a non-parametric two-way ANOVA-TYPE (with factors: group and repeated days) followed by a post-hoc contrasts analysis, with Bonferroni-Holm adjustment for multiplicity, comparing all treated groups to the control group. […] A probability less than 5% (p<0.05) was considered as significant.
Based on the National Cancer Institute (NCl) standards, a ΔT/ΔC≦40% is the minimal level required to declare activity.
This efficacy may also be quantified by the number of tumor regressions observed after therapy. Individual mice reporting a tumor volume ≦50% of the Day 0 measurement for two consecutive measurements over a seven day period were considered partial responders (PR). Individual mice lacking palpable tumors (<4×4 mm^2 for two consecutive measurements over a seven day period) were classified as complete responders (CR); a CR that persisted until study completion was considered a tumor-free survivor (TFS).
Efficacy could also be determined at study completion, using tumor growth delay (T-C) in days, which is calculated using the median time to endpoint (MTTE) value for each treatment (T) group versus control (C). A Log Rank multiple comparison test with Bonferroni-Holm adjustment for multiplicity was applied on individual TTE to compare the treated groups to the control group.
The efficacy of cabazitaxel in comparison with docetaxel on pediatric patient-derived tumor xenografts was determined experimentally in the following manner:
The animals subjected to the experiment are subcutaneously grafted unilaterally with approximately 30 mg of a tumor fragment from low passage pediatric patient-derived tumor xenografts. The animals are implanted with a human patient-derived pediatric tumor xenografted in immuno-compromised mice (Harlan; nu/nu). Several days post tumor implantation, mice are randomized according to their tumor burden to the different groups of treatments and controls. The agents are dosed intravenously at 5.8, 9.3, 15 or 24.2 mg/kg every 4 days for a total of 3 doses (q4d×3) to mice bearing a tumor burden at start of therapy (day 0) ranged from 125 to 250 mm^3.
Beginning Day 0, animals were observed daily and weighed twice weekly using a digital scale; data including individual and mean gram weights (Mean We±SD), mean percent weight change versus Day 0 were recorded for each group. Animal deaths were recorded daily and designated as drug-related (D), technical (T), tumor related (B), or unknown (U) based on weight loss and gross observation; single agent or combination groups reporting a mean >20% for a period of 7 days and/or >10% mortality were considered above the maximum tolerated dose (MTD) for that treatment on the evaluated regimen.
The selected tumor model, DM77, was a low passage patient-derived tumor xenograft derived from an osteosarcoma taken from the lung of a patient. […]

For `CC(=O)O[C@@]12CO[C@@H]1C[C@H](O)[C@@]1(C)C(=O)[C@H](O)C3=C(C)[C@@H](OC(=O)[C@H](O)[C@@H](NC(=O)OC(C)(C)C)c4ccccc4)C[C@@](O)([C@@H](OC(=O)c4ccccc4)[C@H]21)C3(C)C` [Docetaxel, docetaxel], the “#CR” value (5.8 mg/kg i.v./q4dx3) was 0/0/0, the “#PR” value (5.8 mg/kg i.v./q4dx3) was 0/0/0 and the “#TFS” value (5.8 mg/kg i.v./q4dx3) was 0/0/0. The “Drug Deaths Total” value (5.8 mg/kg i.v./q4dx3) was 0, the “Weight Change at Nadir %” value (5.8 mg/kg i.v./q4dx3) was −6% and the “Weight Change at Nadir Day” value (5.8 mg/kg i.v./q4dx3) was 11 days. For the same molecule, the “Tumor Volume Data (Day 21) Median” value (5.8 mg/kg i.v./q4dx3) was 300 mm^3, the ΔT/ΔC % (5.8 mg/kg i.v./q4dx3) was 18.5% and the MTTE (5.8 mg/kg i.v./q4dx3) was 53 days. For the same molecule, the T-C (5.8 mg/kg i.v./q4dx3) was 28 days, the ΔT/ΔC (5.8 mg/kg q4d×3 IV) was 18.5% and the “tumor volume changes from baseline, Median +/− nMAD” value (shortened to “tumor volume changes from baseline”) (5.8 mg/kg, DAY 4) was 47 +/− 47. For the same molecule, the “tumor volume changes from baseline” value (5.8 mg/kg, DAY 7) was 73 +/− 23, the “tumor volume changes from baseline” value (5.8 mg/kg, DAY 11) was 122 +/− 56 and the “tumor volume changes from baseline” value (5.8 mg/kg, DAY 14) was 129 +/− 63. For the same molecule, the “tumor volume changes from baseline” value (5.8 mg/kg, DAY 18) was 169 +/− 116, the “tumor volume changes from baseline” value (5.8 mg/kg, DAY 21) was 169 +/− 103 and the “tumor volume changes from baseline” value (5.8 mg/kg, DAY 25) was 217 +/− 151. For the same molecule, the “tumor volume changes from baseline” value (5.8 mg/kg, DAY 28) was 290 +/− 198, the “tumor volume changes from baseline” value (5.8 mg/kg, DAY 32) was 332 +/− 266 and the “tumor volume changes from baseline” value (5.8 mg/kg, DAY 35) was 342 +/− 250. For the same molecule, the “tumor volume changes from baseline” value (5.8 mg/kg, DAY 39) was 342 +/− 121, the “tumor volume changes from baseline” value (5.8 mg/kg, DAY 42) was 401 +/− 169.5 and the “tumor volume changes from baseline” value (5.8 mg/kg, DAY 46) was 546 +/− 185.5. For the same molecule, the “tumor volume changes from baseline” value (5.8 mg/kg, DAY 49) was 512 +/− 142, the “tumor volume changes from baseline” value (5.8 mg/kg, DAY 53) was 657.5 and the “tumor volume changes from baseline” value (5.8 mg/kg, DAY 56) was 875.5. The “#CR” value (9.3 mg/kg i.v./q4dx3) was 0/0/0, the “#PR” value (9.3 mg/kg i.v./q4dx3) was 0/0/0 and the “#TFS” value (9.3 mg/kg i.v./q4dx3) was 0/0/0. The “Drug Deaths Total” value (9.3 mg/kg i.v./q4dx3) was 0, the “Weight Change at Nadir %” value (9.3 mg/kg i.v./q4dx3) was −7% and the “Weight Change at Nadir Day” value (9.3 mg/kg i.v./q4dx3) was 14 days. The “Tumor Volume Data (Day 21) Median” value (9.3 mg/kg i.v./q4dx3) was 266 mm^3, the ΔT/ΔC % (9.3 mg/kg i.v./q4dx3) was 9.6% and the MTTE (9.3 mg/kg i.v./q4dx3) was over 60 days. The T-C (9.3 mg/kg i.v./q4dx3) was over 35 days, the “numbers of PR” value (9.3 mg/kg q4d×3 IV) was 0/9 and the ΔT/ΔC (9.3 mg/kg q4d×3 IV) was 9.6%. The “tumor volume changes from baseline” value (9.3 mg/kg, DAY 4) was 87 +/− 40, the “tumor volume changes from baseline” value (9.3 mg/kg, DAY 7) was 87 +/− 42 and the “tumor volume changes from baseline” value (9.3 mg/kg, DAY 11) was 96 +/− 77. The “tumor volume changes from baseline” value (9.3 mg/kg, DAY 14) was 96 +/− 69, the “tumor volume changes from baseline” value (9.3 mg/kg, DAY 18) was 96 +/− 69 and the “tumor volume changes from baseline” value (9.3 mg/kg, DAY 21) was 88 +/− 74. The “tumor volume changes from baseline” value (9.3 mg/kg, DAY 25) was 124 +/− 93, the “tumor volume changes from baseline” value (9.3 mg/kg, DAY 28) was 124 +/− 171 and the “tumor volume changes from baseline” value (9.3 mg/kg, DAY 32) was 154 +/− 201. For the same molecule, the “tumor volume changes from baseline” value (9.3 mg/kg, DAY 35) was 169 +/− 235, the “tumor volume changes from baseline” value (9.3 mg/kg, DAY 39) was 202 +/− 268 and the “tumor volume changes from baseline” value (9.3 mg/kg, DAY 42) was 309 +/− 375. For the same molecule, the “tumor volume changes from baseline” value (9.3 mg/kg, DAY 46) was 309 +/− 375, the “tumor volume changes from baseline” value (9.3 mg/kg, DAY 49) was 424.5 and the “tumor volume changes from baseline” value (9.3 mg/kg, DAY 53) was 542 +/− 447.5. For the same molecule, the “tumor volume changes from baseline” value (9.3 mg/kg, DAY 56) was 493 +/− 238, the “#CR” value (15 mg/kg i.v./q4dx3) was 0 and the “#PR” value (15 mg/kg i.v./q4dx3) was 3. The “#TFS” value (15 mg/kg i.v./q4dx3) was 0, the “Drug Deaths Total” value (15 mg/kg i.v./q4dx3) was 0 and the “Weight Change at Nadir %” value (15 mg/kg i.v./q4dx3) was −14%. The “Weight Change at Nadir Day” value (15 mg/kg i.v./q4dx3) was 11 days, the “Tumor Volume Data (Day 21) Median” value (15 mg/kg i.v./q4dx3) was 78 mm^3 and the ΔT/ΔC % (15 mg/kg i.v./q4dx3) was −5.9%. For the same molecule, the MTTE (15 mg/kg i.v./q4dx3) was over 60 days, the T-C (15 mg/kg i.v./q4dx3) was over 35 days and the “tumor volume changes from baseline” value (15 mg/kg, DAY 4) was 66 +/− 66. The “tumor volume changes from baseline” value (15 mg/kg, DAY 7) was 73 +/− 73, the “tumor volume changes from baseline” value (15 mg/kg, DAY 11) was −41 +/− 41 and the “tumor volume changes from baseline” value (15 mg/kg, DAY 14) was −41 +/− 41. The “tumor volume changes from baseline” value (15 mg/kg, DAY 18) was −53 +/− 17, the “tumor volume changes from baseline” value (15 mg/kg, DAY 21) was −54 +/− 12 and the “tumor volume changes from baseline” value (15 mg/kg, DAY 25) was −66 +/− 17. For the same molecule, the “tumor volume changes from baseline” value (15 mg/kg, DAY 28) was −66 +/− 17, the “tumor volume changes from baseline” value (15 mg/kg, DAY 32) was −66 +/− 17 and the “tumor volume changes from baseline” value (15 mg/kg, DAY 35) was −66 +/− 13. The “tumor volume changes from baseline” value (15 mg/kg, DAY 39) was −66 +/− 13, the “tumor volume changes from baseline” value (15 mg/kg, DAY 42) was −66 +/− 13 and the “tumor volume changes from baseline” value (15 mg/kg, DAY 46) was −58 +/− 11. The “tumor volume changes from baseline” value (15 mg/kg, DAY 49) was −58 +/− 11, the “tumor volume changes from baseline” value (15 mg/kg, DAY 53) was −58 +/− 11 and the “tumor volume changes from baseline” value (15 mg/kg, DAY 56) was −58 +/− 11. For the same molecule, the “#CR” value (24.2 mg/kg i.v./q4dx3) was 1, the “#PR” value (24.2 mg/kg i.v./q4dx3) was 6 and the “#TFS” value (24.2 mg/kg i.v./q4dx3) was 1. The “Drug Deaths Total” value (24.2 mg/kg i.v./q4dx3) was 0, the “Weight Change at Nadir %” value (24.2 mg/kg i.v./q4dx3) was −17% and the “Weight Change at Nadir Day” value (24.2 mg/kg i.v./q4dx3) was 14 days. The “Tumor Volume Data (Day 21) Median” value (24.2 mg/kg i.v./q4dx3) was 71.5 mm^3, the ΔT/ΔC % (24.2 mg/kg i.v./q4dx3) was −6.1% and the MTTE (24.2 mg/kg i.v./q4dx3) was over 60 days. The T-C (24.2 mg/kg i.v./q4dx3) was over 35 days, the “tumor volume changes from baseline” value (24.2 mg/kg, DAY 4) was 0 +/− 0 and the “tumor volume changes from baseline” value (24.2 mg/kg, DAY 7) was 0 +/− 0. The “tumor volume changes from baseline” value (24.2 mg/kg, DAY 11) was −50 +/− 24, the “tumor volume changes from baseline” value (24.2 mg/kg, DAY 14) was −55.5 +/− 20 and the “tumor volume changes from baseline” value (24.2 mg/kg, DAY 18) was −55.5 +/− 20. For the same molecule, the “tumor volume changes from baseline” value (24.2 mg/kg, DAY 21) was −55.5 +/− 10.5, the “tumor volume changes from baseline” value (24.2 mg/kg, DAY 25) was −55.5 +/− 10.5 and the “tumor volume changes from baseline” value (24.2 mg/kg, DAY 28) was −53.5 +/− 13. For the same molecule, the “tumor volume changes from baseline” value (24.2 mg/kg, DAY 32) was −53.5 +/− 33, the “tumor volume changes from baseline” value (24.2 mg/kg, DAY 35) was −57.5 +/− 45.5 and the “tumor volume changes from baseline” value (24.2 mg/kg, DAY 39) was −57.5. The “tumor volume changes from baseline” value (24.2 mg/kg, DAY 42) was −57.5, the “tumor volume changes from baseline” value (24.2 mg/kg, DAY 46) was −57.5 and the “tumor volume changes from baseline” value (24.2 mg/kg, DAY 49) was −48 +/− 45.5. The “tumor volume changes from baseline” value (24.2 mg/kg, DAY 53) was −48 +/− 69.5 and the “tumor volume changes from baseline” value (24.2 mg/kg, DAY 56) was −48 +/− 69.5.
